pIC50: −log10 of the molar value.
How the values were obtained:
[1] = tested on: control vector-introduced CHO cells; test: cAMP production test toward LTB4 in control vector-introduced CHO cells; format: cell-based; details: 1 μM forskolin, 0 to 1 μM LTB4
Protocol: The CHO-dhfr(−) strain was inoculated at a density of 1×10^6 cells into a 10 cm Petri dish containing αMEM (supplemented with nucleic acids) medium/10% fetal bovine serum and cultured for 1 day and then subjected to gene transfer of 8 μg of pEF-BOS-dhfr-Jul22 and pEF-BOS-dhfr (control vector) using FuGENE6 (mfd. by Boehringer Mannheim). The gene-transferred cells were recovered 24 hours thereafter, suspended in αMEM (nucleic acid-free) medium/100 nM methotrexate (mfd. by Wako Pure Chemical Industries)/10% fetal bovine serum and then serially diluted and inoculated again into the 10 cm Petri dish. Colonies formed after 2 weeks were separately isolated and used as JULF2 stably expressing CHO cells.
Each of the JULF2 stably expressing CHO cells and control vector-introduced CHO cells was inoculated into a 24 well plate at a density of 1×10^5 cells. […] After 30 minutes at 37° C., the culture supernatant was discarded and the cells were lysed using a cAMP EIA System (BIOTRAK; mfd. by Amersham) cell lysis solution.
Measurement of the produced amount of cAMP in cells under each condition was carried out using the cAMP EIA System in accordance with the attached protocol. […] On the other hand, changes in the produced amount of cAMP by the addition of LTB4 were not found in the control vector-introduced CHO cells.

[2] = tested on: rat JULF2 stably expressing CHO cell; test: Cell migration test of rat JULF2 stably expressing CHO cell toward LTB4; format: cell-based; details: same method of Example 6
Protocol: (§1) A 8 μm pore polycarbonate frame filter (mfd. by Neuroprobe) was treated with 10 μg/ml fibronectin (Asahi Technoglass)/PBS at 4° C. overnight. […] After 4 hours of culturing at 37° C. in a CO2 incubator, the frame filter was fixed with methanol and stained with Diff-Quik Staining Kit (International Reagents Corporation). The upper surface of this filter (the side on which cells were set) was wiped and air-dried and then absorbance at 595 nm was measured using a plate reader (Molecular Devices). Also, in order to examine pertussis toxin (PTX) sensitivity of the JULF2 stably expressing CHO cells, JULF2 stably expressing CHO cells treated with 50 ng/ml PTX for 20 hours were subjected to a cell migration test (FIG. 2).

[3] = tested on: JULF2 stably expressing CHO cells; test: Cell migration test of JULF2 stably expressing CHO cells toward LTB4; format: cell-based, human
Protocol: as §1

[4] = tested on: JULF2 stably expressing CHO cell; test: Cell migration inhibition by JULF2 antagonist for migration of JULF2 stably expressing CHO cell toward LTB4; format: cell-based, human; details: compound 0.03 to 100 μM in upper layer, 100 nM LTB4 in lower layer
Protocol: as §1

JULF2 [5] = biological target: T1, JULF2 (Homo sapiens, UniProt Q9NPC1); test: Screening of compounds which inhibit cAMP inhibition action by LTB4 using JULF2 stably expressing CHO cell; format: cell-based
T1 construct: expressed in transfected cells
T1 sequence (Q9NPC1 1-358): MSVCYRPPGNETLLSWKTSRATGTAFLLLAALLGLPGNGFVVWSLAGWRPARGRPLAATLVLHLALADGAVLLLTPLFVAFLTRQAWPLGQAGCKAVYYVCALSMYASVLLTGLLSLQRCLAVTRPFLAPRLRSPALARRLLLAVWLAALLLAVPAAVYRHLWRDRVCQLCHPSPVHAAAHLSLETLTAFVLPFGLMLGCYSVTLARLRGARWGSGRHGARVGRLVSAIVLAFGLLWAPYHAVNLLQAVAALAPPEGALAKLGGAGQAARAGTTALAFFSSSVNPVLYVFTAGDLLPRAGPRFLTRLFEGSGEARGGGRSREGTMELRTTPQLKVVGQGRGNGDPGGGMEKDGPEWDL
From the text: The compound A, compound B and compound C are commercially available reagents, and compound A is on the market as a code number 0199-0032 of ChemDiv, Inc, and compound B as a code number TPB-488 of InterBioScreen. […] In this connection, the property of the compound A to show anti-inflammatory effect is also described in Biochemical Pharmacology, 51, 737-742, 1996.

JULF2 [6] = biological target: T1, JULF2; test: Inhibition of binding of [3H]LTB4 to JULF2 expressing cell membrane fraction
Protocol: The DNA fragment obtained in Example 1 coding for JULF2 was digested with XbaI and then cloned into pCEP4 (mfd. by Invitrogen) to be used as an expression vector (pCEP4-JULF2) for expressing JULF2. HEK293-EBNA strain was inoculated into a 15 cm Petri dish at a density of 5×10^6 cells and cultured for 1 day, and then 20 μg of pCEP4-JULF2 was subjected to gene transfer using Lipofectamine-2000 (mfd. by Gibco BRL). The gene-transferred cells were recovered 24 hours thereafter, washed, suspended in 20 mM Tris-HCl (pH 7.4)/5 mM EDTA and then homogenized using Polytron. After ultracentrifugation, the sediment was suspended in 20 mM Tris-HCl (pH 7.4) and used as a membrane fraction.
A liquid scintillation was added to the glass filter and the radioactivity was measured using a liquid scintillation counter.

Row | Compound | changes in the produced amount of cAMP by the addition of LTB4 [1] | LTB4 concentration at which the migration activity becomes maximum (bell type chemotaxis) [2] [nM] | LTB4 concentration at which the migration activity becomes maximum (bell type chemotaxis) ([3]; JULF2 stably expressing CHO cells, 4 hours at 37° C., LTB4 in lower layer) [nM] | inhibition of cell migration toward LTB4 [4] | pIC50 (JULF2 [5]) | pIC50 (JULF2 [6]) | inhibition of migration toward LTB4 by PTX pretreatment ([3]; JULF2 stably expressing CHO cells treated with 50 ng/ml PTX for 20 hours)
1 | CCCCC/C=C\C[C@@H](O)/C=C/C=C/C=C\[C@@H](O)CCCC(=O)O [LTB4, leukotriene B4] | not found | 100 | 30 |  |  |  | 
2 | CCCCCCCCOc1ccc(C(=N)N)cc1.Cl [compound A, 4-octyloxybenzenecarboximidoamide hydrochloride] |  |  |  | inhibit cell migration toward LTB4 in a dose-dependent manner | 6.40 | 7.00 | 
3 | CCCCCCOc1ccc(C(=N)NO)cc1 [compound B, 4-hexyloxy-N-hydroxybenzenecarboximidoamide] |  |  |  | inhibit cell migration toward LTB4 in a dose-dependent manner | 5.17 | 5.24 | 
4 | pertussis toxin [PTX] |  |  |  |  |  |  | completely inhibited

Source: US20030077709A1 (priority 2000, published 2003)
